Results from patent US10806794B2, “Protease inhibitors having enhanced features” (priority 2008, dated 2020).
Where two headings read alike, the source gives them in different places.

How the values were obtained:
[1] = test system: CEM-SS cells; assay: CEM-SS cytotoxicity (XTT); conditions: 7 days
Procedure: One day prior to assay initiation, cells were split 1:2 to assure exponential growth at the time of the assay. Cells were counted using a hemocytometer, and viability measured by Trypan Blue dye exclusion. […] CEM-SS cells were resuspended at 5×10^4 cells/mL in medium, and 100 μL of the cell suspension was aliquoted to individual wells of a 96-well microtiter plate containing 100 μL 2× concentration test compound. Plates were incubated for 7 days at 37° C., 5% CO2 until cytotoxicity evaluation.
Test compound-induced cytotoxicity was evaluated by monitoring the reduction of the tetrazolium dye XTT to a soluble formazan product in microtiter plates containing compound-treated cells in the absence of HIV-1 virus. XTT solution was prepared at 0.15 mg/mL in phosphate buffered saline. Phenazine methosulfate (PMS) solution was prepared at 0.15 mg/mL in phosphate buffered saline. A XTT/PMS stock solution was prepared immediately before use by combining 40 uL of PMS per mL of XTT solution. Fifty microliters of the XTT/PMS stock was added to each well of the microtiter plate, the plate was incubated for four hours at 37° C., and the amount of soluble formazan product was measured as the absorbance at 450 nm. Cell viability is directly proportional to the amount of soluble formazan product formed.

[2] = in vitro; assay type: in vitro ADME; conditions: dog, microsomes
Description: Metabolic stability of test compounds was studied in dog liver microsomes.

[3] = test system: Caco-2 cells; assay: in vitro
Procedure: Absorption properties of various compounds were measured using bi-directional permeability assays in Caco-2 cells. […] The efflux ratio is calculated as the ratio of the Papp(B→A)/Papp(A→B).

[4] = in vitro; assay type: in vitro ADME; conditions: monkey, microsomes
Description: Metabolic stability of test compounds was studied in monkey liver microsomes.

[5] = Plasma protein binding by equilibrium dialysis, human plasma; assay type: in vitro ADME; conditions: human plasma, 5 μM, fraction unbound; read-out: Plasma Protein Binding Fu ± SD
In short: (§1)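 Two-hour dialysis at 37 °C separated plasma containing 5 μM test compound (0.5% DMSO) from plasma-free buffer; concentrations in both compartments were then determined by LC-MS/MS.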

[6] = test system: HIV-1Ba-L; assay: Anti-HIV-1 activity in monocyte-derived dendritic cells (reverse transcriptase activity); assay type: cell-based
Procedure: Freshly separated human PBMCs from a single donor were suspended in DPBS at 4×10^6 cells/mL and incubated in a 75 cm^2 cell culture flask for 90 minutes at 37° C., 5% CO2. Non-adherent cells were removed by washing with DPBS. Differentiation to dendritic cells was induced by 7 day incubation in RPMI 1640 medium supplemented with 10% fetal bovine serum, 2 mmol/L L-glutamine, 25 mM HEPES, 100 Units/mL penicllin, 10 μg/mL streptomycin, 50 ng/mL recombinant human granulocyte-macrophage-colony stimulating factor (GM-CSF), and 50 ng/mL recombinant human Interleukin (IL)-4 at 37° C., 5% CO2. The cells were further incubated for two days in the same cytokine cocktail supplemented with 10 ng/mL lipopolysaccharide (LPS). The monocyte-derived dendritic cells were then suspended at 10×10^6 cells/mL in complete medium (RPMI 1640 medium supplemented with 10% fetal bovine serum, 2 mmol/L L-glutamine, 25 mM HEPES, 100 Units/mL penicllin, 10 μg/mL streptomycin) and infected for 2 h at 37 C, 5% CO2 with HIV-1Ba-L at MOI=50-150 TCID50. […] Compound diluted in complete medium was added to cells. After seven days in culture, HIV-1 replication was quantified by measuring HIV-1 reverse transcriptase activity in cell-free supernatants using a standard radioactive tritiated thymidine triphosphate (TTP) polymerization incorporation assay. For each reaction, 1 μL of TTP (1 Ci/mL) was combined with 4 μL of dH2O, 2.5 μL of poly rA and oligo dT (0.5 mg/mL and 1.7 Units/mL, respectively), and 2.5 μL reaction buffer (125 μL 1 mol/L EGTA, 125 μL dH2O, 125 μL 20% Triton X-100, 50 μL 1 mol/L Tris, pH 7.4, 50 μL 1 mol/L DTT, 40 μL 1 mol/L MgCl2), then 10 μL of the resulting mixture was combined with 15 µL of virus-containing supernatant in a round-bottom microtiter plate and the plate incubated at 37° C. in a humidified incubator for 90 minutes. Following incubation, 10 μL of the reaction volume was spotted onto a DEAD filter mat, then washed 5×5 min with 5% sodium phosphate buffer, 2×1 minute in distilled water, 2×1 minute in 70% ethanol, then air dried. The filter mat was incubated with Opti-Fluor O scintillation fluid, and radioactivity quantified using a Wallac 1450 Microbeta Trilux liquid scintillation counter.

[7] = test system: beagle dog hepatocytes; assay: Metabolic stability in beagle dog hepatocytes; assay type: in vitro ADME; conditions: 0.1 uM
[8] = test system: human plasma proteins; assay: Plasma protein binding by equilibrium dialysis, human plasma; assay type: in vitro ADME; conditions: human plasma, 5 μM, fraction unbound
In short: as §1

[9] = test system: human hepatocytes; assay: Metabolic stability in cryopreserved human hepatocytes; conditions: human hepatocytes
In short: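 Test compounds at 0.1 μM or 3 μM incubated with cryopreserved human hepatocytes at 0.5×10^6 viable cells/mL. Sampling up to four hours (0.1 μM) or one or two hours (3 μM), methanol quench, then remaining parent measured by cassette LC-MS/MS.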

[10] = test system: monkey plasma proteins; assay: Plasma protein binding by equilibrium dialysis, monkey plasma; assay type: in vitro ADME; conditions: fraction unbound
Procedure: In assays to estimate binding of test compounds to plasma proteins, test compound solutions (5 μM) are prepared in buffer and species-specific plasma (final DMSO concentration 0.5%). The plasma-containing solution is added to one side of the membrane of an equilibrium dialysis system, and the plasma-free is added to the other side. Dialysis was allowed to reach equilibrium by incubation for two hours at 37° C. The concentration of compound on both sides of the membrane was measured using LC-MS/MS.

[11] = dendritic cells, first determination, read-out: EC50 First
[12] = dendritic cells, mean of three, read-out: Mean EC50
[13] = dendritic cells, second determination, read-out: EC50 Second
[14] = dendritic cells, third determination, read-out: EC50 Third
[15] = Caco-2 monolayers, apical to basolateral

Compound	XTT (CEM-SS) TC50 [1]	A→B, ×10^−6 ([3]; human, Caco-2)	EC50 [6, 11]	EC50 [6, 12]	EC50 [6, 13]	EC50 [6, 14]	CLint ± SEM [7]	t1/2 [7]	Efflux ratio (B→A/A→B) ([3]; Caco-2 monolayers)	Plasma Protein Binding Fu ± SD [8]	CLint ± SEM ([9]; 0.1 uM, up to four hours)	t1/2 ([9]; 0.1 uM, up to four hours)	Monkey Plasma Protein Binding Fu ± SD [10]	further results
COC(=O)N[C@H](C(=O)N[C@@H](Cc1ccccc1)[C@@H](O)CN(Cc1ccc(-c2ccccn2)cc1)NC(=O)[C@@H](NC(=O)OC)C(C)(C)C)C(C)(C)C [Atazanavir, reference compound]	302100 nM	2.04 cm/s	–	–	–	–	–	–	–	–	–	–	–	half-life [2]: 51.8 min; microsomal CLint [2]: 26.8 µL/min/mg; half-life [4]: 24.2 min; microsomal CLint [4]: 42.9 µL/min/mg; fraction unbound at 2 h, 5 μM [5]: 0.106 ± 5.25e-05
CC(C)CN(C[C@@H](O)[C@H](Cc1ccccc1)NC(=O)O[C@H]1CO[C@H]2OCC[C@H]21)S(=O)(=O)c1ccc(N)cc1 [Darunavir, reference compound]	338600 nM	–	–	–	–	–	–	–	–	–	–	–	–	EC50 ([6]; Human immunodeficiency virus 1, Dendritic cell, read-out: EC50 First, dendritic cells, first determination): 2 nM; EC50 ([6]; Human immunodeficiency virus 1, Dendritic cell, read-out: EC50 Second, dendritic cells, second determination): 3 nM; EC50 ([6]; Human immunodeficiency virus 1, Dendritic cell, read-out: EC50 Third, dendritic cells, third determination): 3 nM; EC50 ([6]; Human immunodeficiency virus 1, Dendritic cell, read-out: Mean EC50, dendritic cells, mean of three): 2.7 nM; fraction unbound at 2 h, 5 μM [5]: 0.144 ± 0.0051
COCCOCCOCCOc1ccc(C[C@H](NC(=O)O[C@H]2CO[C@H]3OCC[C@H]32)C(O)CN(CC(C)C)S(=O)(=O)c2ccc(N)cc2)cc1 (stereo partly shown) [mPEG3-O-Darunavir]	>400000 nM	–	0.17 nM	5.9 nM	0.84 nM	16.7 nM	15.5 ± 0.000361 μL/min/10^6 cells	1.49 h	32	0.274 ± 0.0194	–	–	–	A→B, ×10^−6 [3, 15]: 0.51 cm/s
COCCOCCOCCOCCOCCNc1ccc(S(=O)(=O)N(CC(C)C)CC(O)[C@H](Cc2ccccc2)NC(=O)O[C@H]2CO[C@H]3OCC[C@H]32)cc1 (stereo partly shown) [mPEG5-N-Darunavir]	–	–	8 nM	16.7 nM	2 nM	40 nM	–	–	21	0.338 ± 0.0368	3.94 ± 0.386 μL/min/10^6 cells	352 min	–	CLint ± SEM ([9]; 3 uM, incubated up to one hour): 11.9 ± 1.40 μL/min/10^6 cells; A→B, ×10^−6 [3, 15]: 1.07 cm/s
COCCOCCOCCOCCOCCOc1ccc(C[C@H](NC(=O)O[C@H]2CO[C@H]3OCC[C@H]32)C(O)CN(CC(C)C)S(=O)(=O)c2ccc(N)cc2)cc1 (stereo partly shown) [mPEG5-O-Darunavir]	>400000 nM	–	60 nM	56.7 nM	60 nM	50 nM	4.93 ± 0.000253 μL/min/10^6 cells	4.68 h	–	0.448 ± 0.0195	–	–	–	–
COCCOCCOCCOCCOCCOCCOCCNc1ccc(S(=O)(=O)N(CC(C)C)CC(O)[C@H](Cc2ccccc2)NC(=O)O[C@H]2CO[C@H]3OCC[C@H]32)cc1 (stereo partly shown) [mPEG7-N-Darunavir]	–	–	70 nM	63.3 nM	40 nM	80 nM	–	–	–	0.364 ± 0.0298	–	–	–	CLint ± SEM ([9]; 3 uM, incubated up to one hour): 5.13 ± 0.611 μL/min/10^6 cells; A→B, ×10^−6 [3, 15]: 0.32 cm/s
COCCOC(=O)NC(C(=O)NC(Cc1ccccc1)C(O)CN(Cc1ccc(-c2ccccn2)cc1)NC(=O)C(NC(=O)OC)C(C)(C)C)C(C)(C)C (stereo not shown) [mono-mPEG1-Atazanavir]	–	1.25 cm/s	0.16 nM	0.183 nM	0.25 nM	0.14 nM	31.1 ± 0.000512 μL/min/10^6 cells	0.742 h	26	–	15.3 ± 0.00173 μL/min/10^6 cells	90.5 min	0.246 ± 0.0239	–
COCCOCCOCCOC(=O)NC(C(=O)NC(Cc1ccccc1)C(O)CN(Cc1ccc(-c2ccccn2)cc1)NC(=O)C(NC(=O)OC)C(C)(C)C)C(C)(C)C (stereo not shown) [mono-mPEG3-Atazanavir, {1-[N′-[2-Hydroxy-3-(2-{2-[2-(2-methoxy-ethoxy)-ethoxy]-ethoxycarbonylamino}-3,3-dimethyl-butyrylamino)-4-phenyl-butyl]-N′-(4-pyridin-2-yl-benzyl)-hydrazinocarbonyl]-2,2-dimethyl-propyl}-carbamic Acid Methyl Ester]	>400000 nM	–	–	–	–	–	–	–	–	–	–	–	–	half-life [2]: 7.42 min; microsomal CLint [2]: 187 µL/min/mg; half-life [4]: 26.8 min; microsomal CLint [4]: 249 µL/min/mg; fraction unbound at 2 h, 5 μM [5]: 0.217 ± 0.000495
COCCOCCOCCOCCOCCOC(=O)NC(C(=O)NC(Cc1ccccc1)C(O)CN(Cc1ccc(-c2ccccn2)cc1)NC(=O)C(NC(=O)OC)C(C)(C)C)C(C)(C)C (stereo not shown) [mono-mPEG5-Atazanavir]	–	0.12 cm/s	0.15 nM	1.24 nM	3.42 nM	0.14 nM	–	–	88	–	3.98 ± 0.000356 μL/min/10^6 cells	348 min	0.383 ± 0.359	Clint [2]: 93.0 μL/min/mg protein; t1/2 [2]: 14.9 min; Clint [4]: 175 μL/min/mg protein; t½ [4]: 57.6 min
COCCOCCOCCOCCOCCOCCOC(=O)NC(C(=O)NC(Cc1ccccc1)C(O)CN(Cc1ccc(-c2ccccn2)cc1)NC(=O)C(NC(=O)OC)C(C)(C)C)C(C)(C)C (stereo not shown) [mono-mPEG6-Atazanavir]	–	0.11 cm/s	0.16 nM	0.2 nM	0.21 nM	0.23 nM	0.209 ± 0.000143 μL/min/10^6 cells	110.6 h	68	–	0.778 ± 0.000211 μL/min/10^6 cells	1781 min	0.598 ± 0.00839	Clint [2]: 67.1 μL/min/mg protein; t1/2 [2]: 20.7 min; Clint [4]: 238 μL/min/mg protein; t½ [4]: 104 min
COCCOCCOCCOCCOCCOCCOCCOC(=O)NC(C(=O)NC(Cc1ccccc1)C(O)CN(Cc1ccc(-c2ccccn2)cc1)NC(=O)C(NC(=O)OC)C(C)(C)C)C(C)(C)C (stereo not shown) [mono-mPEG7-Atazanavir]	–	0.10 cm/s	0.13 nM	4.03 nM	11.7 nM	0.25 nM	–	–	52	–	–	–	0.570 ± 0.0439	–
